Measured values reported in the RepoRT retention time repository.

Test: HILIC, Waters ACQUITY UPLC BEH HILIC, 150 × 2.1 mm, 1.7 µm, 40 °C, 0.6 mL/min, estimated dead time 0.55 min; A: water + 0.1% formic acid + 20 mM ammonium formate, pH 3.5; B: acetonitrile + 0.1% formic acid, pH 3; gradient (min/%B) 0/95 0.1/95 4.6/80 5.5/50 7.0/50 7.1/95 7.2/95 7.3/95 7.4/95 7.5/95 7.6/95 7.7/95 7.8/95 12.50/95 12.65/95
Settings: stereoisomer not certain

| Structure (SMILES) | LC retention time [min] |
| --- | --- |
| NCCc1ccc(OS(=O)(=O)O)c(O)c1 [Dopamine-4-O-sulfate] | 1.07 |
| CN(CC(=O)O)C(=N)N [Creatine] | 5.06 |
| Cn1cnc(CC(N)C(=O)O)c1 (stereo not drawn) [1-Methylhistidine] | 6.35 |
| CN1C(=O)CCC1c1cccnc1 (stereo not drawn) [Cotinine] | 1.4 |
| C[n+]1cccc(C(N)=O)c1 [1-Methylnicotinamide] | 4.08 |
| Cn1c[n+](C2OC(CO)C(O)C2O)c2nc(N)[nH]c(=O)c21 (stereo not drawn) [7-Methylguanosine] | 1.97 |
| Nc1ncnc2c1ncn2C1OC(CO)C(O)C1O (stereo not drawn) [Adenosine] | 1.75 |
| Cn1c(=O)c2c(ncn2C)n(C)c1=O [Caffeine] | 0.85 |
| CSCC1OC(n2cnc3c(N)ncnc32)C(O)C1O (stereo not drawn) [5'-Methylthioadenosine] | 1.3 |
| CCCC(=O)OC(CC(=O)[O-])C[N+](C)(C)C (stereo not drawn) [Butyrylcarnitine] | 4.69 |
| NCCc1ccccc1 [Phenylethylamine] | 2.91 |
| CN(C)C(N)=NCCC[C@H](N)C(=O)O [Asymmetric Dimethylarginine] | 5.91 |
| C[N+](C)(C)CC(=O)[O-] [Betaine] | 4.78 |
| NCCc1c[nH]c2ccccc12 [Tryptamine] | 2.79 |

Now from value to compound:

| LC retention time [min] | Structure (SMILES) |
| --- | --- |
| 6.25 | C[S+](CCC(N)C(=O)O)CC1OC(n2cnc3c(N)ncnc32)C(O)C1O (stereo not drawn) [S-Adenosylmethionine] |
| 3.74 | CCCCCCCCCCCCCCCCCC(=O)OC(CC(=O)[O-])C[N+](C)(C)C (stereo not drawn) [Stearoylcarnitine CAR(18:0)] |
| 1.81 | CC(CCC(=O)NCCS(=O)(=O)O)C1CCC2C3CCC4CC(O)CCC4(C)C3CC(O)C12C (stereo not drawn) [Taurodeoxycholic Acid] |
| 5.44 | CC(=O)NC(CCCCN)C(=O)O [N-alpha-acetyl-L-lysine] |
| 4.11 | CSCCC(N)C(=O)O (stereo not drawn) [Methionine] |
| 5.4 | O=C(O)[C@@H]1CCCN1C(=O)[C@@H]1CCCN1 [L-prolyl-L-proline] |
| 2.39 | Nc1ccnc(=O)[nH]1 [Cytosine] |
| 1.96 | CC(CCC(=O)NCC(=O)O)C1CCC2C3CCC4CC(O)CCC4(C)C3CC(O)C12C (stereo not drawn) [Glycodeoxycholic acid] |
| 1.24 | Cn1cc(C(N)=O)ccc1=O [N1-methyl-2-pyridone-5-carboxamide] |
| 2.51 | CN1CC(=O)NC1=N [Creatinine] |
| 0.948 | Cn1c(=O)[nH]c2ncn(C)c2c1=O [Paraxanthine] |
| 2.32 | Nc1nc2ncc(C(O)C(O)CO)nc2c(=O)[nH]1 (stereo not drawn) [Neopterin] |
| 1.9 | CN(C)c1nc2c(ncn2C2OC(CO)C(O)C2O)c(=O)[nH]1 (stereo not drawn) [N2,N2-Dimethylguanosine] |
| 6.02 | C[N+](C)(C)CCOP(=O)([O-])OCC(O)CO (stereo not drawn) [a-Glycerophosphocholine] |
